Entries after “also recorded” stand apart in the source; their conditions may differ.
Experiments:
HEK293-NK1R cells = experiment: SP-induced membrane blebbing in HEK293-NK1R cells (phase-contrast / DIC / confocal microscopy); type: cell-based; settings: for effect of colchicine on SP-induced blebbing: colchicine pretreatment
RhoA = settings: microtubule depolymerizing reagent; ref [24], [25]; cited from earlier work
Excerpt: (§1) It has been shown that Rho GTPases are regulated by microtubule dynamics. […] One of the major intracellular signaling molecules involved in the regulation of tubulin function is p21- activated kinase 1 (PAK), which interacts with a variety of other proteins ...

T cells = settings: ref [26]; cited from earlier work
Excerpt: as §1

[1] = system: myosin light chain 2 (MLC2) (Ser19); type: cell-based, human
Procedure: Cells were lysed in lithium dodecyl sulfate (LDS) sample buffer (Invitrogen, Carlsbad, CA), and lysed using a sonic dismembrator model 100 (Fisher Scientific, Hampton, NH). Cell extracts were subjected to LDS polyacrylamide gel electrophoresis and transferred to polyvinylidene difluoride membranes. After blocking with 5% nonfat dry milk in 0.1% Tween 20/TBS, membranes were incubated with the primary antibody. […] The following non phospho-specific antibodies were used: Beta-Actin and PAK1/2/3 (Cell Signaling Technology, Beverly, MA). Secondary antibodies conjugated to horseradish peroxidase were either anti-rabbit (Biorad, Hercules, CA), or anti-mouse (Cell Signaling Technology, Beverly, MA). Bands were visualized by enhanced chemiluminescence using SuperSignal® West Pico Chemiluminescent Substrate (Thermo Scientific, Rockford, IL) on a VersaDoc Imager (BioRad, Hercules, CA).

Compound: COc1cc2c(c(OC)c1OC)-c1ccc(OC)c(=O)cc1[C@@H](NC(C)=O)CC2 [colchicine]
- cell morphology after colchicine (HEK293-NK1R cells; colchicine): causing the cells to appear less adherent and to round up
- effect of colchicine on SP-induced blebbing (HEK293-NK1R cells): not able to block the SP-induced blebbing
- effect of colchicine on SP-induced blebbing (HEK293-NK1R cells; listed as Colchicine): unable to block bleb formation

Compound: COC(=O)Nc1nc2ccc(C(=O)c3cccs3)cc2[nH]1 [Nocodazole]
- RhoA activation by nocodazole (RhoA): induces RhoA activation
- effect of nocodazole on T cell migratory phenotype (T cells): converts T cells from the classical lamellipodial/uropod migratory phenotype to a blebbing migratory phenotype

Compound: C3 transferase
- effect of C3 transferase on MLC phosphorylation [1]: decrease in MLC phosphorylation

Compound: Oc1ccc2ccccc2c1SSc1c(O)ccc2ccccc12 [IPA3, 1, 1′-Dithiodi-2-naphthtol]
- effect of IPA3 on SP-induced blebbing (HEK293-NK1R cells; IPA3 pretreatment, phase-contrast): not in HEK293 cells; also recorded: no effect on HEK293- NK1R cell's ability to bleb

Reference: publication PMC3179504 (PLoS ONE, 2011)
